Laboratory results: patent US12577231B2, “Androgen receptor PROTACS” (GlaxoSmithKline Intellectual Property Development Limited, priority 2023, dated 2026)

The compounds below were run against T1, Androgen Receptor, LNCaP (AR T878A) (Homo sapiens, UniProt P10275, T878A) (assay: Androgen Receptor Degradation-Imaging Assay, LNCaP cell line). Conditions: 16 hours treatment, maximum observed degradation.
T1 construct: endogenous in cells; host or cells: LNCaP
T1 sequence (P10275 1-920 T878A): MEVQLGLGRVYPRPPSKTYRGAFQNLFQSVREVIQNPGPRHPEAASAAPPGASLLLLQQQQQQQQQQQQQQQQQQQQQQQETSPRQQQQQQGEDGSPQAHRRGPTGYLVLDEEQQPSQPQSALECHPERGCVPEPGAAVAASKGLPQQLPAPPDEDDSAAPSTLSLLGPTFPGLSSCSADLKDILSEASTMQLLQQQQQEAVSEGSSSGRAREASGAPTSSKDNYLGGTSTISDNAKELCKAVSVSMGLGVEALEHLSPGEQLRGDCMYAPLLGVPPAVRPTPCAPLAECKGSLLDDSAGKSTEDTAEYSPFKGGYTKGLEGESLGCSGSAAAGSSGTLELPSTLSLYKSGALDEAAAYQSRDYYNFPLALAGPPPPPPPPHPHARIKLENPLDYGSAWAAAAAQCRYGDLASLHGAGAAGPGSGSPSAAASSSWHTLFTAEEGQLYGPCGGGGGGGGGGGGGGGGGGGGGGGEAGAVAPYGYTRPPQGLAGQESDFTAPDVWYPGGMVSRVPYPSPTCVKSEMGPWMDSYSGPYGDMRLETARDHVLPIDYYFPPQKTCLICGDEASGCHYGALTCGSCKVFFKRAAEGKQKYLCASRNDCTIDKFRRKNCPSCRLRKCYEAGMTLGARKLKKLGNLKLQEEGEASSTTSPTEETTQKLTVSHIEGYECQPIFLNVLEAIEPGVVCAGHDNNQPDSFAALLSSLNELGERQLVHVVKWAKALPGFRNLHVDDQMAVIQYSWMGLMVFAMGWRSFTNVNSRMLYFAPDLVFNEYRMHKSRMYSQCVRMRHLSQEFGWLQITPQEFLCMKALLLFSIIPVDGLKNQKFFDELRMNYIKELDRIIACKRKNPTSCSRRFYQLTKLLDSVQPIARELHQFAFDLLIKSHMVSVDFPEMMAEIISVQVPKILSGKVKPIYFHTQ
Assay type: cell-based
Procedure: Degradation of Androgen Receptor (AR) protein in human prostate cancer cell lines (MDA-PCa-2b (AR T878A/L702H), LNCaP (AR T878A), VCaP (AR wild type and amplified) 22RV1 (AR H875Y) and PC3 (AR negative control)) treated with AR PROTACs was quantified using immunofluorescence. Prostate cancer cells were plated (MDA-PCa-2b, and VCaP 16,000 cells/well; LNCaP and 22RV1 32,000 cells/well, and PC3 8,000 cells/well) in an optical bottom 96-well cell culture plate and allowed to attach overnight. The prostate cancer cell lines were treated for 16 hours with a 10-point 3-fold dilution series (dose range=0.02 nM to 333 nM). PC3 is included as an AR negative control and not treated with compound. Cells are fixed and permeabilized with 4% formaldehyde, blocked with 10% goat serum in immunofluorescence (IF) buffer (130 mM NaCl, 7 mM Na2HPO4, 3.5 mM NaH2PO4, 7.7 mM NaN3, 0.1% BSA, 0.2% Triton X, 0.05% Tween 20) prior to overnight incubation with rabbit antibody specific for C terminus of AR (commercially available from RevMaB Biosciences). Following washes with IF buffer, cells were incubated with fluorescent secondary antibody (Goat anti-rabbit Alexa 647; commercially available from Invitrogen) and Hoechst nuclear stain (commercially available from Themo Scientific) prior to quantification of nuclear AR levels via Opera Phenix high-content fluorescent imager using a 40× water objective. Image analysis was performed with Harmony software.
The averaged nuclear Alexa 647 median fluorescence intensity (MFI) of PC3 cells is subtracted from the nuclear Alexa 647 MFI of PROTAC treated and DMSO control treated cells. % AR remaining is calculated for PROTAC treatments as a percent of the DMSO control (MFI PROTAC treated/MFI DMSO control treated)*100). DC50 and the Dmax values, were obtained from these normalised values fitted with a 4-parameter sigmoidal response curve (Xlfit software). The DC50 is the interpolated concentration of PROTAC corresponding to 50% of the protein being degraded, and the Dmax parameter is the maximum experimentally observed degradation.

Row | SMILES | Dmax [%]
1 | COc1cc(O[C@H]2C(C)(C)[C@H](NC(=O)c3ccc(N4CCC(CN5CCC(n6ccc7c(N8CCC(=O)NC8=O)cccc76)CC5)CC4)cc3)C2(C)C)ccc1C#N [Example 16, N-((1r,3r)-3-(4-Cyano-3-methoxyphenoxy)-2,2,4,4-tetramethylcyclobutyl)-4-(4-((4-(4-(2,4-dioxotetrahydropyrimidin-1(2H)-yl)-1H-indol-1-yl)piperidin-1-yl)methyl)piperidin-1-yl)benzamide] | ≥ 80
2 | CC1(C)[C@H](NC(=O)c2cc(F)c(N3CCC(CN4CCC(n5ncc6c(N7CCC(=O)NC7=O)cccc65)CC4)CC3)c(F)c2)C(C)(C)[C@H]1Oc1ccc(C#N)c2ncccc12 [Example 30, N-((1r,3r)-3-((8-Cyanoquinolin-5-yl)oxy)-2,2,4,4-tetramethylcyclobutyl)-4-(4-((4-(4-(2,4-dioxotetrahydropyrimidin-1(2H)-yl)-1H-indazol-1-yl)piperidin-1-yl)methyl)piperidin-1-yl)-3,5-difluorobenzamide] | ≥ 80
3 | CC1(C)[C@H](NC(=O)c2ccc(N3CCC(CN4CCC(n5ncc6c(N7CCC(=O)NC7=O)cccc65)CC4)CC3)c(F)c2)C(C)(C)[C@H]1Oc1ccc(C#N)c2ncccc12 [Example 6, N-((1r,3r)-3-((8-Cyanoquinolin-5-yl)oxy)-2,2,4,4-tetramethylcyclobutyl)-4-(4-((4-(4-(2,4-dioxotetrahydropyrimidin-1(2H)-yl)-1H-indazol-1-yl)piperidin-1-yl)methyl)piperidin-1-yl)-3-fluorobenzamide] | ≥ 80
4 | CC1(C)[C@H](NC(=O)c2ccc(N3CCC(CN4CCC(n5ccc6c(N7CCC(=O)NC7=O)ncnc65)CC4)CC3)cc2)C(C)(C)[C@H]1Oc1ccc(C#N)c2ncccc12 [Example 28, N-((1r,3r)-3-((8-Cyanoquinolin-5-yl)oxy)-2,2,4,4-tetramethylcyclobutyl)-4-(4-((4-(4-(2,4-dioxotetrahydropyrimidin-1(2H)-yl)-7H-pyrrolo[2,3-d]pyrimidin-7-yl)piperidin-1-yl)methyl)piperidin-1-yl)benzamide] | ≥ 80
5 | CC1(C)[C@H](NC(=O)c2ccc(N3CCC(CN4CCC(n5ncc6c(N7CCC(=O)NC7=O)cccc65)CC4)CC3)c(F)c2)C(C)(C)[C@H]1Oc1ccc(C#N)c2c1CCCO2 [Example 8, N-((1r,3r)-3-((8-Cyanochroman-5-yl)oxy)-2,2,4,4-tetramethylcyclobutyl)-4-(4-((4-(4-(2,4-dioxotetrahydropyrimidin-1(2H)-yl)-1H-indazol-1-yl)piperidin-1-yl)methyl)piperidin-1-yl)-3-fluorobenzamide] | ≥ 80
6 | CC1(C)[C@H](NC(=O)c2ccc(N3CCC(CN4CCC(n5ccc6c(N7CCC(=O)NC7=O)cc(F)cc65)CC4)CC3)c(F)c2)C(C)(C)[C@H]1Oc1ccc(C#N)c2ncccc12 [Example 32, N-((1r,3r)-3-((8-Cyanoquinolin-5-yl)oxy)-2,2,4,4-tetramethylcyclobutyl)-4-(4-((4-(4-(2,4-dioxotetrahydropyrimidin-1(2H)-yl)-6-fluoro-1H-indol-1-yl)piperidin-1-yl)methyl)piperidin-1-yl)-3-fluorobenzamide] | ≥ 80
7 | CC1(C)[C@H](NC(=O)c2ccc(N3CCC(CN4CCC(n5ccc6c(N7CCC(=O)NC7=O)ncnc65)CC4)CC3)c(F)c2)C(C)(C)[C@H]1Oc1ccc(C#N)c2ncccc12 [Example 47, N-((1r,3r)-3-((8-Cyanoquinolin-5-yl)oxy)-2,2,4,4-tetramethylcyclobutyl)-4-(4-((4-(4-(2,4-dioxotetrahydropyrimidin-1(2H)-yl)-7H-pyrrolo[2,3-d]pyrimidin-7-yl)piperidin-1-yl)methyl)piperidin-1-yl)-3-fluorobenzamide] | ≥ 80
8 | COc1cc(O[C@H]2C(C)(C)[C@H](NC(=O)c3ccc(N4CCC(CN5CCC(n6ncc7c(N8CCC(=O)NC8=O)nccc76)CC5)CC4)c(F)c3)C2(C)C)ccc1C#N [Example 20, N-((1r,3r)-3-(4-Cyano-3-methoxyphenoxy)-2,2,4,4-tetramethylcyclobutyl)-4-(4-((4-(4-(2,4-dioxotetrahydropyrimidin-1(2H)-yl)-1H-pyrazolo[4,3-c]pyridin-1-yl)piperidin-1-yl)methyl)piperidin-1-yl)-3-fluorobenzamide] | ≥ 80
9 | COc1cc(O[C@H]2C(C)(C)[C@H](NC(=O)c3ccc(N4CCC(CN5CCC(n6ncc7c(N8CCC(=O)NC8=O)cccc76)CC5)CC4)cc3)C2(C)C)ccc1C#N [Example 15, N-((1r,3r)-3-(4-Cyano-3-methoxyphenoxy)-2,2,4,4-tetramethylcyclobutyl)-4-(4-((4-(4-(2,4-dioxotetrahydropyrimidin-1(2H)-yl)-1H-indazol-1-yl)piperidin-1-yl)methyl)piperidin-1-yl)benzamide] | ≥ 80
10 | CC1(C)[C@H](NC(=O)c2ccc(N3CCC(O)(CN4CCC(n5ncc6c(N7CCC(=O)NC7=O)cccc65)CC4)CC3)c(F)c2)C(C)(C)[C@H]1Oc1ccc(C#N)c2ncccc12 [Example 48, N-((1r,3r)-3-((8-Cyanoquinolin-5-yl)oxy)-2,2,4,4-tetramethylcyclobutyl)-4-(4-((4-(4-(2,4-dioxotetrahydropyrimidin-1(2H)-yl)-1H-indazol-1-yl)piperidin-1-yl)methyl)-4-hydroxypiperidin-1-yl)-3-fluorobenzamide] | ≥ 80
11 | CC1(C)[C@H](NC(=O)c2ccc(N3CCC(CN4CCC(n5ncc6c(N7CCC(=O)NC7=O)nccc65)CC4)CC3)c(F)c2)C(C)(C)[C@H]1Oc1ccc(C#N)c2ncccc12 [Example 39, N-((1r,3r)-3-((8-Cyanoquinolin-5-yl)oxy)-2,2,4,4-tetramethylcyclobutyl)-4-(4-((4-(4-(2,4-dioxotetrahydropyrimidin-1(2H)-yl)-1H-pyrazolo[4,3-c]pyridin-1-yl)piperidin-1-yl)methyl)piperidin-1-yl)-3-fluorobenzamide] | ≥ 80
